Laboratory results as given in US11001891B2, “Methods for treating Parkinson's disease” (Berg LLC, priority 2016, dated 2021).

How the values were obtained:
Assay type in all cases: cell-based, human
SH-SY5Y cells [1] = experiment: PIG3 protein, cleaved PARP and cell death in SH-SY5Y cells treated with 6-OHDA; settings: 6-OHDA 0, 50 and 100 μm, 48 hours
Experimental: This experiment was similar to the experiment described in Example 1, except that the in vitro chemical model of Parkinson's Disease involved treatment of SH-SY5Y cells with oxidopamine, also known as 6-hydroxydopamine (6-OHDA) or 2,4,5-trihydroxyphenethylamine 6-OHDA is known to have a selective adverse effect on dopaminergic and noradrenergic neurons. The structure of 6-OHDA is shown below:
For the experiment, SH-SY5Y cells were treated with 6-OHDA at a concentration of 0, 50 and 100 μm for 48 hours. Following the treatment, the amount of PIG3 protein in the cells and the extent of SH-SY5Y cell death were assessed. Cells treated with etoposide were used as a positive control. Apoptosis in the treated cells was assessed by measuring the amount of cleaved poly(ADP-ribose) polymerase (PARP).

PIG3 protein = experiment: Time course of PIG3 protein in SH-SY5Y cells after 6-OHDA (immunoblot); settings: 50 nm 6-OHDA, normalized to actin
Experimental: The purpose of this experiment was to access the effect of overexpression of PIG3 on cell viability and reactive oxygen species (ROS) production. To this end, SH-SY5Y cells stably overexpressing the PIG3 open reading frame (PIG3 ORF) were created and characterized by determining their viability, ROS burden and the amount of PIG3 protein produced in response to treatment with 50 nM 6-OHDA. Cell viability was measured relative to the empty vector control, pLOC (CTRL). ROS burden was estimated using DCFDA fluorescence measured by flow cytometry; and the amount of PIG3 protein was measured by immunoblotting and normalizing the densitometry of immunoreactivity to the amount of actin as a loading control.

[2] = tested on: patient-specific induced pluripotent stem cells (iPSCs); settings: rotenone 0-1,000 nm or 6-OHDA 0.5-10 μM, 48 hours
Experimental: (§1) For the experiment, patient-specific iPSCs were prepared by reprogramming primary dermal fibroblasts harvested from the upper arm of PD+ and unaffected donors using a non-integrating, self-replicating polycistronic RNA construct containing the reprogramming factors OCT4, SOX2, KLF4 and GLIS1 (Millipore, Simplicon™) according to published protocols. […] Following the treatment, the amount of PIG3 protein in the cells and cell viability were assessed.

PIG3 = PIG3 expression in patient-specific iPSCs after neurotoxin treatment; settings: rotenone 0-1,000 nm or 6-OHDA 0.5-10 μM, 48 hours
Experimental: as §1

LRRK2-PD neurons = settings: iPSC-derived LRRK2-PD neurons, increasing concentrations of neurotoxin
Experimental: IPSCs were prepared from LRRK2-PD fibroblasts and then differentiated towards excitatory cortical neurons as described in the above examples and following published protocols (e.g., Shi et al., Nat. Neurosci. 2012, 15(3):10.1038; Chamber et al. Nat. Biotechnology, 2009, 27:275-280, the entire contents of which are incorporated herein by reference).

SH-SY5Y cells [3] = experiment: Cell death in SH-SY5Y cells treated with rotenone or 6-OHDA (in vitro chemical model of Parkinson's Disease); settings: 48 hours rotenone or 6-OHDA in the presence vs absence of inhibitor
From the text: The purpose of this experiment was to test the effect of inhibiting the expression of PIG3 in an in vitro chemical model of Parkinson's Disease. For this experiment, an siRNA capable of inhibiting the expression of PIG3 (PIG3 siRNA) was synthesized and tested in SH-SY5Y cells against a non-targeting […] (NTC).
(§2) The purpose of this experiment was to test the effect of inhibiting the p38 MAPK activity on cell death and the expression of PIG3 in in vitro chemical model of Parkinson's Disease. […] SH-SY5Y cell death and PIG3 mRNA expression were assessed following treatment.
(§3) The purpose of this experiment was to test the effect of inhibiting LRRK2 activity on cell death and the expression of PIG3 in in vitro chemical model of Parkinson's Disease. […] SH-SY5Y cell death and PIG3 mRNA expression were assessed following treatment.

PIG3 mRNA = PIG3 mRNA expression in SH-SY5Y cells treated with rotenone or 6-OHDA in presence of kinase inhibitor; settings: 48 hours rotenone or 6-OHDA in the presence vs absence of inhibitor
Experimental: as §2, §3

SH-SY5Y cells [4] = experiment: PIG3 protein, cleaved PARP and cell death in SH-SY5Y cells treated with rotenone; settings: rotenone 0, 50, 100 and 500 nm, 48 hours, immunoblot
Experimental: The purpose of this experiment was to evaluate the expression of PIG3 and cell viability in an in vitro chemical model of Parkinson's Disease.
Following the treatment, the amount of PIG3 protein in the cells and the extent of SH-SY5Y cell death were assessed. Cells treated with etoposide, which is known to induce apoptosis, were used as a positive control. Apoptosis in the treated cells was assessed by measuring the amount of cleaved poly(ADP-ribose) polymerase

SMILES | apoptosis (cleaved PARP) / cell death (SH-SY5Y cells [1]) | amount of PIG3 protein (SH-SY5Y cells [1]; immunoblot) | relative amounts of PIG3 protein at different times after treatment (PIG3 protein) | iPSC viability [2] | PIG3 expression (PIG3) | PIG3 protein (LRRK2-PD neurons) | cleaved PARP expression (LRRK2-PD neurons) | cell death (SH-SY5Y cells [3]) | PIG3 mRNA expression (PIG3 mRNA) | amount of PIG3 protein (SH-SY5Y cells [4])
NCCc1cc(O)c(O)cc1O [6-OHDA, 2,4,5-trihydroxyphenethylamine] | 6-OHDA-induced apoptosis | increased as a function of increasing concentration of 6-OHDA | time-dependent accumulation of PIG3 protein | decreased viability | increased PIG3 expression | further increases | further increases | – | – | –
COc1cc(C(=O)N2CCC(N3CCN(C)CC3)CC2)ccc1Nc1ncc2c(n1)N(C)c1ccccc1C(=O)N2C [LRRK2-IN-1] | – | – | – | – | – | – | – | decreased cell death | decreased PIG3 mRNA expression | –
C[S+]([O-])c1ccc(-c2nc(-c3ccncc3)c(-c3ccc(F)cc3)[nH]2)cc1 (centres unmarked) [SB203580] | – | – | – | – | – | – | – | decreased cell death | decreased PIG3 mRNA expression | –
C=C(C)[C@H]1Cc2c(ccc3c2O[C@@H]2COc4cc(OC)c(OC)cc4[C@@H]2C3=O)O1 [rotenone] | – | – | – | – | increased PIG3 expression | further increases | – | – | – | increased as a function of increasing concentration of rotenone
